{
  "source": "paper PMC7318222",
  "about": "“A Family of Water‐Immiscible, Dipolar Aprotic, Diamide Solvents from Succinic Acid” (Chemsuschem, 2020)",
  "key": {"PPARγ": {"target": "T1, PPARγ (Homo sapiens, UniProt P37231)", "T1 construct": "expression construct for the full-length human receptor under investigation; expressed in transfected cells; host or cells: human U2-OS cells (ATCC HTB-96), stably transfected", "T1 sequence (P37231 1-505)": "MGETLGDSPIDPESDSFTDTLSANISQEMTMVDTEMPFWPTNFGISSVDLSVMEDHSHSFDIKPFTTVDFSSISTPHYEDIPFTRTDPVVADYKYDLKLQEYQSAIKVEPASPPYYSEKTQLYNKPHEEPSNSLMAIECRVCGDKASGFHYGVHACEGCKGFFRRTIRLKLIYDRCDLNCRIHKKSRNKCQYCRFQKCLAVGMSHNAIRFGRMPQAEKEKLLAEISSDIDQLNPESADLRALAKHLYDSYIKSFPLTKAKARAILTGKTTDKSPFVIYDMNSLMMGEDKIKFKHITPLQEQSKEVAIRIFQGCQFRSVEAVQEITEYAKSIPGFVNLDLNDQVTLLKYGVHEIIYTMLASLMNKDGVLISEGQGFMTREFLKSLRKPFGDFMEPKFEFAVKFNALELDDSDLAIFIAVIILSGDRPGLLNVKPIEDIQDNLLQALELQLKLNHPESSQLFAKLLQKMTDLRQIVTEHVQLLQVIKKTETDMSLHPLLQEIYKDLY", "assay": "PPARγ CALUX reporter gene assay", "format": "cell-based", "design": "key: –: no effect observed up to the highest test concentration", "conditions": "PC10, 24 h exposure", "from_the_text": "2-methylimidazole 99.0%, zinc(II) nitrate hexahydrate ≥99.0%, para-cymene 99.0%, 1,4-dioxane 99.8% (anhydrous), 4-nitroaniline ≥99.0%, 1-octanol ≥99.0%, diglyme ≥99.0%, DMSO-d6 (99.8% D) and chloroform-d (99.8% D) were purchased from Sigma-Aldrich. Toluene ≥99.0%, hexane ≥99.5%, DCM ≥99.5%, chloroform ≥99.5%, DMSO ≥99.0% were purchased from VWR. N,N-diethyl-4-nitroaniline ≥98.0% was purchased from Alfa Aeser. Cyrene was supplied by Circa group. N-butylpyrrolidinone was supplied by Eastman chemicals. N,N-dimethylformamide 99.9% and N,N-dimethylacetamide 99.9% were purchased from Fischer. The flakes of Ultrason® E3020 P Polyarylethersulfone of 55,000 Da were obtained from INGE.BASF, Germany. The CALUX cell lines have been described previously.[1] They are based on human U2-OS cells (ATCC, HTB-96) stably transfected with an expression construct for the full-length human receptor under investigation, and a reporter construct consisting of multimerized responsive elements for the cognate receptor coupled to a minimal promoter element (TATA) and a luciferase gene. Cells were maintained as described previously,[2] using cell culture media and supplements from Fisher Scientific as described in the experimental procedures section. […]\n(§1) In vitro reporter gene assays\n(§2) The automated CALUX assays were carried out similarly as described earlier,[12] with some adaptations. In brief, the assay was performed in CO2 independent medium (Fisher Scientific, […]\n(§3) supplement (Fisher Scientific, 11574466), 10 U/mL penicillin and 10 µg/mL streptomycin. A cell suspension in assay medium was made of 1 × 10^5cells/mL, and white 384-wells plates were seeded with 30 µl cell suspension/well. After 24 h, exposure medium was prepared. A dilution series in 0.5log unit increments of each test compound (in DMSO) was added to a 96-wells plate containing assay medium (2% v/v). Of this exposure mixture, 30 µl was added to the assay plates containing the CALUX cells, resulting in a final DMSO concentration of 1%. Additionally, DMSO blanks and a full dose response curve of the relevant reference compound were included on each plate. All samples were tested in triplicate. The preparation of the compound dilution series as well as the exposure of the cells were performed on a Hamilton StarLET liquid handling robot coupled to a Cytomat incubator.\n(§4) Directly after exposure, plates were sealed with non-breathing plate seals (Plate sealer, easy seal transparent; Greiner-Bio-One, 676001). After 24 h the exposure medium was removed using an EL406 washer-dispenser (BioTek) and 10 µl/well triton lysisbuffer was added by the EL406.\nSubsequently, the luciferase signal was measured in a luminometer (InfinitePro coupled to a Connect Stacker, both TECAN). In order to be able to detect receptor antagonism, several assays were also performed in antagonistic mode. […]\nThe luminometer data was analysed as follows; the average of the triplicate wells was determined, and the average blank (DMSO) value was subtracted. […] For antagonist- and cytotoxicity experiments, PC20 values were determined instead, which was defined as the concentration where the test compound causes a 20% decrease in the basal signal, which was […]\n(§5) curve, the signal induction above background (DMSO) was determined, and the concentration where the compound elicited a 1.5-fold increase above background was used as LEC."}, "[1]": {"assay": "Octanol/water partition coefficient (Log P(o/w)), shake flask method", "format": "physicochemical", "conditions": "this work", "from_the_text": "The succindiamides have large, positive Log P (o/w) values, meaning they favor the organic layer in an octanol/water biphasic system and are therefore more lipophilic.37 In contrast, the traditional dipolar aprotics have large, negative Log P (o/w) values so are more hydrophilic. […] Importantly, none of the succindiamide solvents have a Log P (o/w) above 4, the value that has been set as a threshold for bioaccumulation in the environment. […]\nEquation S2. π = ν [DMSO]−ν [cyclohexane] […]\nDetermination of octanol/water partition coefficient (Log P(o/w))\nDetermination of the log P(o/w) was done by the shake flask method. 1.5 mL each of octanol and water were mixed in a 4 mL vial. 30 μL of the test solute and 10 μL of an internal standard (diglyme) were added and the mixture was shaken for 30 seconds and allowed to stand overnight. Samples (1 mL) were taken from both the aqueous and organic layers and added to 1.5 mL GC vials for GC analysis.\nLog P(o/w) was obtained using Equation S5."}, "p53": {"test_system": "p53", "assay": "p53 CALUX assay", "format": "cell-based, human", "design": "key: –: no effect observed up to the highest test concentration", "conditions": "cell signaling pathway assay, 24 h exposure", "from_the_text": "Six of the CALUX assays (TCF through p53) detect activation of several cellular signaling pathways, which are indicative of general stress and acute toxicity, but also a range of more specific types of toxicity, including reproductive toxicity. […]\nDCM ≥99.5%, chloroform ≥99.5%, DMSO ≥99.0% were purchased from VWR. […]\nPolyarylethersulfone of 55,000 Da were obtained from INGE.BASF, Germany. The CALUX cell lines have been described previously.[1] They are based on human U2-OS cells (ATCC, HTB-96) stably transfected with an expression construct for the full-length human receptor under investigation, and a reporter construct consisting of multimerized responsive elements for the cognate receptor coupled to a minimal promoter element (TATA) and a luciferase gene. Cells were maintained as described previously,[2] using cell culture media and supplements from Fisher Scientific as described in the experimental procedures section. […]\nas §1, §2, §3, §4\nSubsequently, the luciferase signal was measured in a luminometer (InfinitePro coupled to a Connect Stacker, both TECAN). In order to be able to detect receptor antagonism, several assays were also performed in antagonistic mode. The assay procedure was as described above, with the only exception that the EC50 concentration of the reference agonist was present during the exposure.\nThe luminometer data was analysed as follows; the average of the triplicate wells was determined, and the average blank (DMSO) value was subtracted. For receptor-based assays the maximum response elicited by the reference compound was set to 100% (full receptor- or pathway activation), and the other values were scaled accordingly. GraphPad Prism was used to fit a sigmoidal curve through the data (four parameters, variable slope). […] For antagonist- and cytotoxicity experiments, PC20 values were determined instead, which was defined as the concentration where the test compound causes a 20% decrease in the basal signal, which was […]\nas §5"}, "[2]": {"assay": "shake flask; GC analysis of both layers with diglyme internal standard (SI)", "conditions": "not told"}},
  "data": [
    {"smiles": "CCCCN(CCCC)C(=O)CCC(=O)N(CCCC)CCCC", "note": "[TBSA, N,N,N′,N′‐tetrabutylsuccindiamide]", "values": [
      {"measurement": "LEC PPARγ", "setting": "PPARγ", "value": "–"},
      {"measurement": "logP", "setting": "[1]", "value": 3.77},
      {"measurement": "LEC p53", "setting": "p53", "value": "–"},
      {"measurement": "log partition 1-octanol / water", "setting": "[2]", "value": "3.77 log10 of concentration ratio (GC peak-area ratio)"}
    ]},
    {"smiles": "CCCCN(CC)C(=O)CCC(=O)N(CC)CCCC", "note": "[EBSA, N,N′‐diethyl‐N,N′‐dibutylsuccindiamide]", "values": [
      {"measurement": "LEC PPARγ", "setting": "PPARγ", "value": "–"},
      {"measurement": "logP", "setting": "[1]", "value": 2.72},
      {"measurement": "LEC p53", "setting": "p53", "value": "–"},
      {"measurement": "log partition 1-octanol / water", "setting": "[2]", "value": "2.72 log10 of concentration ratio (GC peak-area ratio)"}
    ]},
    {"smiles": "CN1CCCC1=O", "note": "[NMP, N‐methyl‐2‐pyrrolidone, reference compound]", "values": [
      {"measurement": "LEC PPARγ", "setting": "PPARγ", "value": "–"},
      {"measurement": "LEC p53", "setting": "p53", "value": "–"}
    ]},
    {"smiles": "CCCCN(C)C(=O)CCC(=O)N(C)CCCC", "note": "[MBSA, N,N′‐dimethyl‐N,N′‐dibutylsuccindiamide]", "values": [
      {"measurement": "LEC PPARγ", "setting": "PPARγ", "value": "–"},
      {"measurement": "logP", "setting": "[1]", "value": 1.65},
      {"measurement": "LEC p53", "setting": "p53", "value": "–"},
      {"measurement": "log partition 1-octanol / water", "setting": "[2]", "value": "1.65 log10 of concentration ratio (GC peak-area ratio)"}
    ]},
    {"smiles": "CCCCN1CCCC1=O", "note": "[NBP, N‐Butylpyrrolidinone, reference compound]", "values": [
      {"measurement": "LEC PPARγ", "setting": "PPARγ", "value": "–"},
      {"measurement": "logP", "setting": "[1]", "value": 0.99},
      {"measurement": "LEC p53", "setting": "p53", "value": "–"},
      {"measurement": "log partition 1-octanol / water", "setting": "[2]", "value": "0.99 log10 of concentration ratio (GC peak-area ratio)"}
    ]}
  ]
}
